The values below come from ChEMBL document CHEMBL1133826, “Design, synthesis, and biological activity of diiminoisoindolines as complement component 3a antagonists” (Bioorg Med Chem Lett, 2001).

Test [1] deals with T1, C3a anaphylatoxin chemotactic receptor (Homo sapiens, UniProt Q16581).
T1 sequence (Q16581 whole entry): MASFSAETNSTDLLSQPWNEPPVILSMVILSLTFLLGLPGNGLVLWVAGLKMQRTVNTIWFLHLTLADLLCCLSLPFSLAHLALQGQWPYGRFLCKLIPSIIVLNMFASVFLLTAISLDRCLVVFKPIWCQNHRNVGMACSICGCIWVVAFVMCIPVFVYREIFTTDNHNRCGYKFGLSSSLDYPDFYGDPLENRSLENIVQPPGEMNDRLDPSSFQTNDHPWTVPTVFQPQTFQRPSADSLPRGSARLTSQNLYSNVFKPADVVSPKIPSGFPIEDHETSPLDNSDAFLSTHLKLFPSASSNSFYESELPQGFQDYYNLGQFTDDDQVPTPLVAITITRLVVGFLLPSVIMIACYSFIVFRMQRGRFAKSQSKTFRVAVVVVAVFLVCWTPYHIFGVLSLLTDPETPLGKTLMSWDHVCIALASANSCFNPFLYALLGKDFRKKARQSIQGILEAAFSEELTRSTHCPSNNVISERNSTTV
Put plainly: Inhibition of complement component 3a (C3a) binding to C3a receptor in human neutrophil based assay.

The species named for test [2] is Homo sapiens. Description: Concentration required for 50% inhibition of binding against C3a receptor induced calcium mobilization in human neutrophil. It counts as functional, organism-based.
Test [3] concerns Rattus norvegicus. Description: Percent inhibition against C3a receptor induced wheal formation in rat at the dose of 15 mg/Kg administered orally.
The subject of test [4] is Rattus norvegicus. Put plainly: Percent inhibition against C3a receptor induced wheal formation in rat at the dose of 30 mg/Kg administered intraperitoneally.
For test [5], the species on record is Homo sapiens. Put plainly: Inhibitory concentration against C3a receptor induced chemotaxis in human eosinophils; Not active at 25 uM. It counts as functional, organism-based.
The test system of test [6] is Rattus norvegicus. Description: Percent inhibition against C3a receptor induced wheal formation in rat at the dose of 30 mg/Kg administered orally.
Test [7] addresses T1, C3a anaphylatoxin chemotactic receptor. Put plainly: Concentration required to inhibit complement component 3a (C3a) binding to C3a receptor in human neutrophil based assay; Not active at 25 uM.
For test [8], the species on record is Homo sapiens. Put plainly: Percent inhibition against C3a receptor induced chemotaxis in human eosinophils at the dose of 25 uM. In kind it is functional.
For test [9], the species on record is Homo sapiens. Description: Percent inhibition against C3a receptor induced calcium mobilization in human neutrophil at the dose of 25 uM. In kind it is functional.
The species named for test [10] is Homo sapiens. Description: Inhibitory concentration against C3a receptor induced chemotaxis in human eosinophils. It counts as functional, organism-based.

For the molecule `Fc1ccc(CC/N=C2\N=C(NCCc3ccc(F)cc3)c3cnccc32)cc1`, the IC50 in [1] came to 13.4 µM.

As for `Clc1cccc(CC/N=C2\N=C(NCCc3cccc(Cl)c3)c3ccccc32)c1`, the figures for the concentration for half-maximal inhibition (IC50) in [2], in test [5] and in [1] were 5.4 µM, “Not Active” and 7.48 µM, respectively. The inhibition is 28% in test [3], 72% in test [4] and 55% in test [6].

For the molecule `Cc1ccc(C/N=C2\N=C(NCc3ccc(C)cc3)c3ccccc32)cc1`, the IC50 is 2 µM in test [2] and 1.7 µM in test [1]. For the same molecule, the results for the inhibition in [3], in test [4] and in test [6] were 30%, 64% and 61%, respectively.

Regarding `CC(=O)Nc1ccc2c(c1)/C(=N\Cc1ccc(C)cc1)N=C2NCc1ccc(C)cc1`, the IC50 in test [1] was found to be 32 µM.

As to `CC(C)/N=C1\N=C(NC(C)C)c2ccccc21`, the IC50 entry in [7] is reported as “Not Active”.

For the molecule `Fc1ccc(CC/N=C2\N=C(NCCc3ccc(F)cc3)c3nccnc32)cc1`, the IC50 entry in [7] is “Not Active”.

In test [1], `CC(C)NC1=N/C(=N\CCc2ccc(Cl)cc2)c2ccccc21` displayed an IC50 of 8.45 µM.

Consider `COc1ccc2c(c1)/C(=N/CCc1ccc(C)cc1)N=C2NCCc1ccc(C)cc1`, for which the IC50 in test [2] was 3.8 µM; in [1] it was 12.6 µM. Moreover, in test [8], the inhibition at 25 µM amounted to 37%.

Turning to `CC(C/N=C1\N=C(NCC(C)c2ccc(Cl)cc2)c2ccccc21)c1ccc(Cl)cc1` (stereo unspecified), the inhibition at 25 µM in [9] is 69%. Besides, in test [1], the IC50 was 5.9 µM.

As to `Fc1ccc(CC/N=C2\N=C(NCCc3ccc(F)cc3)c3ccccc32)cc1`, the results for the IC50 in test [2], in test [1] and in test [10] were 3.1 µM, 11.4 µM and 6.5 µM, respectively. The inhibition was found to be 44% in test [3], 73% in test [4] and 72% in [6].

Regarding `N=C1N=C(NCCc2ccc(Cl)cc2)c2ccccc21`, the concentration for half-maximal inhibition (IC50) entry in test [7] is “Not Active”.

For `Cc1ccc(CC/N=C2\N=C(NCCc3ccc(C)cc3)c3ccccc32)cc1`, the results for the IC50 in test [2], in [1] and in test [10] were 3.3 µM, 6.14 µM and 6.5 µM, respectively. Further, the inhibition in [4] was 38%; in [6], 67%.

For `CN(C)CCOc1ccc2c(c1)/C(=N/CCc1ccc(F)cc1)N=C2NCCc1ccc(F)cc1`, the IC50 came to 5.36 µM in test [1] and 7.8 µM in test [10].

As for `Cc1ccc(C/N=C2\N=C(NCc3ccc(C)cc3)c3cc([N+](=O)[O-])ccc32)cc1`, the IC50 result in [7] is listed as “Not Active”.

As to `CCCOc1ccc2c(c1)/C(=N/CCc1ccc(F)cc1)N=C2NCCc1ccc(F)cc1`, the inhibition at 25 µM in test [9] amounted to 79%. Also, the IC50 in [1] stood at 5.97 µM; in test [10], 6.1 µM.

Regarding `Cc1ccc(CC/N=C2/CCC(NCCc3ccc(C)cc3)=N2)cc1`, the IC50 result in [7] is given as “Not Active”.

In test [1], `Cc1ccc(CC/N=C2\N=C(NCCc3ccc(C)cc3)c3cc(Cl)c(Cl)cc32)cc1` had an IC50 of 48 µM.

As to `Clc1ccc(CC/N=C2\N=C(NCCc3ccc(Cl)cc3)c3ccccc32)cc1`, the IC50 in [2] is 8.2 µM; in test [1], 7.16 µM; in test [10], 10.2 µM. In addition, the inhibition in [4] is 26%; in test [6], 63%.
